Assay results taken from patent US20240317696A1, “ALKYL CARBOXYLIC ACID COMPOUNDS AND APPLICATION THEREOF” (MEDSHINE DISCOVERY INC., priority 2021, published 2024).

Columns and labels:
sGC = sGC (Homo sapiens (Human), UniProt Q02153); test: cGMP expression test based on LNCap cells (sGC stimulatory activity); type: cell-based; conditions: ODQ present; for MEC: Minimum effective concentration required to stimulate cGMP production in LNCap cells (greater than three times the baseline value); for EC50: cGMP production in LNCap cells
Sequence of sGC (Q02153 whole entry): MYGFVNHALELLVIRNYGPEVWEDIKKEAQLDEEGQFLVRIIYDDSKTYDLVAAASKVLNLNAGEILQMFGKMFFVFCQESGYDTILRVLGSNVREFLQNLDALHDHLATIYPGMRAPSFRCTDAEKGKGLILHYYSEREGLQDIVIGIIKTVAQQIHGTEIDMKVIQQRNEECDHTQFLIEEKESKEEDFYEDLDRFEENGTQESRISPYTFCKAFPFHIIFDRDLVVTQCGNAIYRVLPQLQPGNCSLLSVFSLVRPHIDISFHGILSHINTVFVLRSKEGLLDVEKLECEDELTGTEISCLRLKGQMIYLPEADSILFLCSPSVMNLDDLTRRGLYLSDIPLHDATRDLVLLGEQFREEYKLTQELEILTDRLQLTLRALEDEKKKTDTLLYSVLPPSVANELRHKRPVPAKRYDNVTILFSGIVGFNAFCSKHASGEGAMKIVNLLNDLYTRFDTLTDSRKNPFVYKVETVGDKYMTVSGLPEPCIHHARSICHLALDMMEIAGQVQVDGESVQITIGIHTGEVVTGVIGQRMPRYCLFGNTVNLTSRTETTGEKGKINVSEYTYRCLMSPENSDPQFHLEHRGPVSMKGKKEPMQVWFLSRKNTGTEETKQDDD
Sequence of sGC (Q02108 whole entry partner): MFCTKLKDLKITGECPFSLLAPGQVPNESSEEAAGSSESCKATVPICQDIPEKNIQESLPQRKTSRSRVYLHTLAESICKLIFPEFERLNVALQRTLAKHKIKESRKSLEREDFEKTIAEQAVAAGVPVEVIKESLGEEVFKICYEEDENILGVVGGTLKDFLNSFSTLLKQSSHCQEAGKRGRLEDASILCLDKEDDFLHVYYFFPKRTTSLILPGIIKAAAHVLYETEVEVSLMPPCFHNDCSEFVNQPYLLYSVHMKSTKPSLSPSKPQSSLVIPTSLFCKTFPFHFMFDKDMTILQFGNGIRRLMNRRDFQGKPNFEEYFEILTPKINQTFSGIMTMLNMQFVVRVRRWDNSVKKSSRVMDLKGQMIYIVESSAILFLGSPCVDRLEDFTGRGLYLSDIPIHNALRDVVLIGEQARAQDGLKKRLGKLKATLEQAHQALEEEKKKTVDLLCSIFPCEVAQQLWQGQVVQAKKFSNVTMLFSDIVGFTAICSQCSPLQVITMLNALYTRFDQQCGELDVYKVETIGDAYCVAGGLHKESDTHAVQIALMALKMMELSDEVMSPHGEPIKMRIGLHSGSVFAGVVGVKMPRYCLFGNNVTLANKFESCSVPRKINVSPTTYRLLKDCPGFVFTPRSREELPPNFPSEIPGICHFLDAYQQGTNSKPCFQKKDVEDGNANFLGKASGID
Method: I. cGMP Expression Test Based on InCap Cells
(1) The compound was diluted to a concentration of 10 mM using DMSO.
(2) A serial dilution of the compound was performed, resulting in 10 different concentration levels of each compound. 100 nL of each diluted compound was added to a 96-well plate.
3) Preparation of LNCap Cells
(1) LNCap culture medium: RPMI1640 supplemented with 10% fetal bovine serum (FBS) and 1% double antibody
(9) Assay buffer was added, and the cell concentration was adjusted to 3×10^6/mL.
4) Preparation and Addition of ODQ Solution
(1) 10 mM ODQ stock solution was diluted at a ratio of 1:1000 and added to the cell solution.
(2) After thorough mixing, the solution was added to a microplate at 10 μL per well.
5) Preparation of cGMP Standard Curve
(1) 1 mM cGMP stock solution was diluted to 10 μM using assay buffer. 11 concentration gradients were created through 4-fold serial dilutions.
(2) The diluted cGMP was added to the microplate at 10 μL per well.
6) Addition of Assay Reagents and Plate Reading
(1) cGMP-D2 was transferred to a 384-well plate at 5 μL per well. Anti-cGMP cryptate was transferred to a […] at 5 μL per well. Centrifugation was performed at 1500 rpm for 1 minute.
(2) Incubation was carried out at room temperature for 1 hour.
(3) The plates were read using envision at 665/615 wavelengths.
(1) cGMP standard curve: A standard curve was generated using GraphPad Prism, based on the ratio of cGMP concentration to the 665/615 wavelength values.
(2) Conversion of HTRF (homogeneous time-resolved fluorescence) ratio (665/615) to cGMP concentration: In GraphPad Prism, the HTRF ratio (665/615) was copied to the ratio column of the cGMP standard curve. The analysis “Log inhibitor vs response-variable slope” was run, and the “interpolate” option was selected to convert the HTRF ratio (665/615) into cGMP concentration.
(3) Compound activation curve: A curve was generated using the “Log agonist vs response-variable slope” analysis method in GraphPad Prism, based on the converted cGMP concentration and compound concentration.

hepatocytes [1] = test: In vitro hepatocyte metabolic stability, rat; type: in vitro ADME; conditions: test compound 1 μM, 0.5×10^6 cells/mL
Method: (§1) 1. Experimental Objective: The Aim of the Study was to Assess the Stability of the Compounds in Hepatocytes of Different Species.
(§2) A variety of 96-well precipitation plates were prepared and labeled as T0, T15, T30, T60, T90, T0-MC, T90-MC, and blank matrix, respectively. Revival medium and incubation medium were taken in advance and pre-warmed in a 37° C. water bath. Hepatocytes of different species, stored in a liquid nitrogen tank, were taken and immediately immersed in a 37° C. water bath for approximately 90 seconds. Once partially thawed, cells were transferred to centrifuge tubes containing 40 mL of revival medium, and gently inverted to resuspend the cells in the revival medium. At room temperature, cells were centrifuged at 100×g for 5 minutes. The supernatant was discarded, and the hepatocytes were resuspended in an appropriate volume of incubation medium. Viability was calculated using trypan blue staining. 198 μL of hepatocyte suspension (0.51×10^6 cells/mL) was added to pre-warmed incubation plates. For the control group, 198 μL of hepatocyte-free incubation medium was added to T0-MC and […] plates. All plates were pre-incubated for 10 minutes in a 37° C. incubator. […] All samples were mixed well and analyzed using LC/MS/MS methods.

hepatocytes [2] = test: In vitro hepatocyte metabolic stability, mouse; type: in vitro ADME; conditions: test compound 1 μM, 0.5×10^6 cells/mL
Method: as §1, §2

[3] = In vivo pharmacokinetic property study in male Sprague Dawley rats
Method: Experimental objective: The aim of this study was to determine the pharmacokinetic parameters of the compound in male Sprague Dawley rats.
Sprague Dawley rats (male, 200 to 300 g, 7 to 9 weeks old, procured from Shanghai SLAC)
For this project, four male Sprague Dawley rats were used. Two rats in one group were administered the compound intravenously at a dosage of 2 mg/kg and a concentration of 0.4 mg/mL. Two rats in another group were administered the compound orally at a dosage of 10 mg/kg and a concentration of 1 mg/mL. Plasma samples were collected 0.083 (intravenous group only), 0.25, 0.5, 1, 2, 4, 6, 8, and 24 hours after administration. The collected samples were then analyzed using LC-MS/MS and data were collected. The collected analytical data were processed using Phoenix WinNonlin 6.3 software to calculate relevant pharmacokinetic parameters.

hepatocytes [4] = test: In vitro hepatocyte metabolic stability, human; type: in vitro ADME; conditions: test compound 1 μM, 0.5×10^6 cells/mL
Method: as §1, §2

## C[C@H]([C@H](C(=O)Nc1cc(C(CC(=O)O)C2CCCC2)ccc1Cl)c1ccc(Cl)cc1)C(F)(F)F (stereo partly drawn) [WX001]
sGC
  MEC: 4.20 nM
  EC50: 6.62 nM

## C[C@H]([C@H](C(=O)Nc1cc([C@@H](CC(=O)O)C2CCCC2)ccc1Cl)c1ccc(Cl)cc1)C(F)(F)F [WX002]
sGC
  MEC: 2.20 nM
  EC50: 1.76 nM

## C[C@H]([C@H](C(=O)Nc1cc(C(CC(=O)O)C23CC(F)(C2)C3)ccc1Cl)c1ccc(Cl)cc1)C(F)(F)F (stereo partly drawn) [WX004]
sGC
  MEC: 0.61 nM
  EC50: 3.74 nM

## C[C@H]([C@H](C(=O)Nc1cc([C@@H](CC(=O)O)C23CC(F)(C2)C3)ccc1Cl)c1ccc(Cl)cc1)C(F)(F)F [WX005]
sGC
  MEC: 0.27 nM
  EC50: 2.06 nM
Hepatocytes [1]
  CLint (liver): 154.7 mL/min/kg
  T1/2: 41.9 min
Hepatocytes [2]
  CLint (liver): 610.4 mL/min/kg
  T1/2: 27.0 min
[3]; iv 2 mg/kg
  AUC: 11.228 µM·h
  Cl: 5.47 mL/min/kg
  T1/2: 3.83 h
  Vdss: 1.27 L/kg
[3]; po 10 mg/kg
  AUC: 17.423 µM·h
  T1/2: 6.92 h
[3]; po 10 mg/kg vs iv 2 mg/kg
  % F: 42.1%
Hepatocytes [4]
  CLint (liver): 49.7 mL/min/kg
  T1/2: 77.6 min

## C[C@H]([C@H](C(=O)Nc1cc(C(CC(=O)O)C23CC(F)(C2)C3)ccc1F)c1ccc(Cl)cc1)C(F)(F)F (stereo partly drawn) [WX007]
sGC
  MEC: 0.65 nM
  EC50: 3.28 nM

## Cc1ccc(C(CC(=O)O)C23CC(F)(C2)C3)cc1NC(=O)C(c1ccc(Cl)cc1)[C@@H](C)C(F)(F)F (stereo partly drawn) [WX010]
sGC
  MEC: 1.76 nM
  EC50: 2.16 nM

## Cc1ccc([C@@H](CC(=O)O)C23CC(F)(C2)C3)cc1NC(=O)[C@H](c1ccc(Cl)cc1)[C@@H](C)C(F)(F)F [WX011]
sGC
  MEC: 1.39 nM
  EC50: 1.75 nM

## COC12CC(C(CC(=O)O)c3ccc(Cl)c(NC(=O)[C@H](c4ccc(Cl)cc4)[C@@H](C)C(F)(F)F)c3)(C1)C2 (stereo partly drawn) [WX013]
sGC
  MEC: 1.22 nM
  EC50: 3.5 nM

## COC12CC([C@H](CC(=O)O)c3ccc(Cl)c(NC(=O)[C@H](c4ccc(Cl)cc4)[C@@H](C)C(F)(F)F)c3)(C1)C2 [WX014]
sGC
  MEC: 0.42 nM
  EC50: 1.65 nM

## C[C@H]([C@H](C(=O)Nc1cc([C@@H](CC(=O)O)[C@H]2CCCO2)ccc1Cl)c1ccc(Cl)cc1)C(F)(F)F [WX016]
sGC
  MEC: 27.85 nM
  EC50: 145 nM
